Reference: patent EP4732840A1, “AGENT FOR SUPPRESSING PROLIFERATION OF BACTERIA, AND COSMETIC, QUASI-DRUG, AND PHARMACEUTICAL COMPOSITION CONTAINING SAID AGENT, AND METHOD FOR SUPPRESSING PROLIFERATION OF BACTERIA” (Toyo Sugar Refining Co., Ltd., priority 2023, dated 2024)

Experiments:
[1] = test system: Streptococcus mutans; assay: Proliferation test with paper disc on agar plate (growth inhibition zone); assay type: cell-based, Streptococcus mutans (JCM 5705); settings: test substance (COSARTE-2G or glycerin) diluted to 40% by mass, 50 µL on paper disc; BHI agar, 48 hours
Protocol: (§1) As glyceryl glucoside, COSARTE-2G (manufactured by Toyo Sugar Refining Co., Ltd.) was diluted with ion-exchanged water such that COSARTE-2G was 40% by mass. Further, as a positive control, BD (Sensi-Disc Tetracycline 30, Antimicrobial Susceptibility Test Kit, manufactured by Nippon Becton Dickinson Company, Ltd.) was used. As a control, glycerin (manufactured by Nacalai Tesque Inc.) was diluted with ion-exchanged water to be 40% by mass.
Streptococcus mutans (JCM 5705) was used as a representative strain of Streptococcus mutans. A Streptococcus mutans strain was added to BHI liquid medium and pre-cultured at 35°C.
(§2) GAM agar plates and BHI agar plates were prepared. Pre-cultured Propionibacterium acnes, Streptococcus mutans, and Staphylococcus aureus strains in the logarithmic growth phase were suspended in liquid medium to a concentration of 1 × 10^7 cells/mL, and 50 µL of this suspension was taken and spread onto each agar plate medium using a glass spreader.
Each test substance was sterilized by filtration using a membrane filter, and then 50 µL was impregnated into a sterilized paper disc. A paper disk was aseptically placed on an agar plate medium, and cultured for 48 hours under conditions suitable for each bacterial strain.
(§3) The effect of inhibiting the proliferation of bacteria was determined by the presence or absence and size of the growth inhibition zone around the paper disc.

[2] = test system: Staphylococcus aureus; assay: as above; assay type: cell-based, Staphylococcus aureus (NBRC 13276); settings: test substance (COSARTE-2G or glycerin) diluted to 40% by mass, 50 µL on paper disc; BHI agar, 48 hours
Protocol: as §1
Staphylococcus aureus (NBRC 13276) was used as a representative strain of Staphylococcus aureus. A Staphylococcus aureus strain was added to BHI liquid medium and pre-cultured at 37°C.
as §2
(§4) Each test substance was sterilized by filtration using a membrane filter, and then 50 µL was impregnated into a sterilized paper disc. […]
as §3

[3] = test system: Propionibacterium acnes; assay: as above; assay type: cell-based, Propionibacterium acnes (JCM 6425); settings: test substance (COSARTE-2G or glycerin) diluted to 40% by mass, 50 µL on paper disc; GAM agar, anaerobic, 48 hours
Protocol: as §1
Propionibacterium acnes (JCM 6425) was used as a representative strain of Propionibacterium acnes. A Propionibacterium acnes strain was added to GAM liquid medium and pre-cultured at 35°C under anaerobic conditions using an AnaeroPack.
as §2, §4, §3

[4] = test system: Gardnerella vaginalis; assay: Bacterial proliferation test (turbidity, absorbance at 600 nm); assay type: cell-based, Gardnerella vaginalis (ATCC 14018); settings: C-mo 2G at final concentrations of 0.5%, 1.0%, 2.0% in medium; 3 culture days, 37°C, 5%CO2; n = 3; effect concentration dependent
Excerpt: (§5) C-mo2G (manufactured by Toyo Sugar Refining Co., Ltd.) was used as glyceryl glucoside. Furthermore, as a positive control, penicillin-streptomycin (manufactured by FUJIFILM Wako Pure Chemical Corporation, No. 168-23191) was used. Sterile water was used as a control.
(§6) Bacteria and media shown in Table 1 were used, and cultured under the conditions in Table 1.
(§7) As a GAM semi-fluid high layer medium, NO.05424 manufactured by NISSUI PHARMACEUTICAL CO., LTD. was used.
(§8) The number of culture days was set to such a number of days that bacterial proliferation could be visually confirmed in the control.
(§9) Each bacterium in which a frozen stock (15% (vol/vol) glycerin was added to the medium) was inoculated into 9 mL of the medium, and culture was started. After culturing until reaching the logarithmic growth phase, the medium was well stirred to make the turbidity uniform, and then the absorbance at 600 nm was measured. The medium was diluted with a medium such that the absorbance (600 nm) was 0.1, and this was used as a bacterial diluent.
(§10) C-mo 2G was added to the medium at final concentrations of 0.5%, 1.0%, and 2.0%. […]
(§11) 200 µL of the bacterial diluent was added to 9 mL of the medium containing the test substance, and culture was started. After culturing, the medium was well stirred to make the turbidity uniform, and then the absorbance (turbidity) at 600 nm was measured. […]

[5] = Photosensitization test; settings: in vivo
[6] = test system: Atopobium vaginae; assay: Bacterial proliferation test (turbidity, absorbance at 600 nm); assay type: cell-based, Atopobium vaginae (ATCC BAA-55); settings: C-mo 2G at final concentrations of 0.5%, 1.0%, 2.0% in medium; 2 culture days, 37°C, anaerobic; n = 3; effect concentration dependent
Excerpt: as §5, §6, §7, §8
An experiment was performed using Atopobium vaginae as a representative bacterium of the genus Atopobium.
Each bacterium in which a frozen stock (15% (vol/vol) glycerin was added to the medium) was inoculated into 9 mL of the medium, and culture was started. After culturing until reaching the logarithmic growth phase, the medium was well stirred to make the turbidity uniform, and then the absorbance at 600 nm was measured. The medium was diluted with a medium such that the absorbance (600 nm) was 0.1, and this was used as a bacterial diluent. […]
as §11

[7] = Skin sensitization test (intracutaneous Maximization method); assay type: in vivo; settings: guinea pig intracutaneous Maximization method
[8] = Phototoxicity test; assay type: in vivo; settings: guinea pig
[9] = Mutagenicity test (in vitro)
[10] = Eye irritation test; assay type: in vivo; settings: rabbit
[11] = Water solubility; assay type: physicochemical
[12] = Primary skin irritation test; assay type: in vivo; settings: rabbit
[13] = test system: Lactobacillus crispatus; assay: Bacterial proliferation test (turbidity, absorbance at 600 nm); assay type: cell-based, Lactobacillus crispatus (ATCC 33820); settings: C-mo 2G at final concentrations of 0.5%, 1.0%, 2.0% in medium; 1 culture day, 37°C, 5%CO2; n = 3
Excerpt: as §5, §6, §7, §8, §9, §10, §11

[14] = Repeated skin irritation test; settings: in vivo
[15] = Human patch test; assay type: in vivo
[16] = test system: Lactobacillus iners; assay: Bacterial proliferation test (turbidity, absorbance at 600 nm); assay type: cell-based, Lactobacillus iners (ATCC 55195); settings: C-mo 2G at final concentrations of 0.5%, 1.0%, 2.0% in medium; 3 culture days, 37°C, 5%CO2; n = 3
Excerpt: as §5, §6, §7, §8, §9, §10, §11

[17] = test system: Staphylococcus epidermidis; settings: viable count after 24 hours or 48 hours exposure; Patent Literature 2; cited from earlier work
[18] = test system: Staphylococcus aureus; settings: viable count after 24 hours or 48 hours exposure; Patent Literature 2; cited from earlier work
[19] = test system: Pseudomonas cepacia; settings: viable count after 24 hours or 48 hours exposure; Patent Literature 2; cited from earlier work
[20] = reported in Patent Literature 2; cited from earlier work
[21] = test system: Pseudomonas aeruginosa; settings: viable count after 24 hours or 48 hours exposure; Patent Literature 2; cited from earlier work
[22] = test system: Escherichia coli; settings: viable count after 24 hours or 48 hours exposure; Patent Literature 2; cited from earlier work
[23] = test system: Corynebacterium minutissimum; settings: viable count after 24 hours or 48 hours exposure; Patent Literature 2; cited from earlier work

Compound: OCC(O)CO [Glycerin, glycerin, reference compound]
- growth inhibition zone around the paper disc, Streptococcus mutans [1]: same result as glyceryl glucoside
- growth inhibition zone around the paper disc, Staphylococcus aureus [2]: same result as glyceryl glucoside
- growth inhibition zone around the paper disc, Propionibacterium acnes [3]: same result as glyceryl glucoside

Compound: glyceryl glucoside
- proliferation of Gardnerella vaginalis (absorbance 600 nm) relative to control [4]: significantly inhibited
- growth inhibition zone around the paper disc, Streptococcus mutans [1]: no growth inhibition zone
- toxicity in photosensitization test [5]: no toxicity
- growth inhibition zone around the paper disc, Staphylococcus aureus [2]: no growth inhibition zone
- proliferation of Atopobium vaginae (absorbance 600 nm) relative to control [6]: significantly inhibited
- toxicity in skin sensitization test [7]: no toxicity
- toxicity in phototoxicity test [8]: no toxicity
- toxicity in mutagenicity test [9]: no toxicity
- toxicity in eye irritation test [10]: no toxicity
- water solubility [11]: good
- toxicity in primary skin irritation test [12]: no toxicity
- growth inhibition zone around the paper disc, Propionibacterium acnes [3]: no growth inhibition zone
- proliferation of Lactobacillus crispatus (number of bacteria, absorbance 600 nm) relative to control [13]: little change in the number
- toxicity in repeated skin irritation test [14]: no toxicity
- toxicity in human patch test [15]: no toxicity
- proliferation of Lactobacillus iners (number of bacteria, absorbance 600 nm) relative to control [16]: increased

Compound: α-D-glucopyranosylglycerol
- antimicrobial activity against Staphylococcus epidermidis [17]: antimicrobial activity
- antimicrobial activity against Staphylococcus aureus [18]: antimicrobial activity
- antimicrobial activity against Pseudomonas cepacia [19]: antimicrobial activity
- skin irritation [20]: no skin irritation
- antimicrobial activity against Pseudomonas aeruginosa [21]: antimicrobial activity
- antimicrobial activity against Escherichia coli [22]: antimicrobial activity
- antimicrobial activity against Corynebacterium minutissimum [23]: antimicrobial activity
